Common to all, as to assay: NCI-60 cell line screen, 48 h
The test system of experiment [1] is ACHN renal.
For experiment [2], the system named is COLO 205 colon.
Experiment [3] relates to HCT-116 colon.
In experiment [4] the test system is HOP-92 NSCLC.
Experiment [5] deals with M14 melanoma.
For experiment [6], the system named is NCI-H226 lung.
Experiment [7] relates to OVCAR-5 ovarian.
In experiment [8] the test system is SK-OV-3 ovarian.
The subject of experiment [9] is SNB-75 CNS.
In experiment [10] the test system is SW-620 colon.

The text below walks through data of PubChem BioAssay (NCI).

“And” between values parts separate entries of the source, which are not always exact repeats. Equal entries are not always repeated.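 Test compounds were applied to cells in 96-well plates for 48 hours at 5 doses. GI50 is the concentration that inhibits growth by half. TGI denotes the concentration required for complete inhibition of growth.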

With `Cc1n[nH]c(=S)n1/N=C/c1ccc(F)c(Oc2ccccc2)c1`, the GI50 in experiment [1] was greater than 100 µM; in [2], 68.1 µM; in experiment [3], 36 µM; in experiment [4], 63.3 µM; in experiment [5], 36.9 µM; in [6] it was greater than 100 µM. In addition, the GI50 was greater than 100 µM in [7], greater than 100 µM in experiment [8], 45.1 µM in experiment [9] and 36.5 µM in [10]. Also, the TGI in experiment [1], in experiment [2], in experiment [3], in [4], in [5] and in [6] was greater than 100 µM in each case. The TGI in experiment [7], in experiment [8], in experiment [9] and in [10] was greater than 100 µM each time.
With `CC(=O)O[C@H]1C(=O)O[C@@H]2C[C@H]3C(C)=CC(=O)[C@@H](O)[C@]3(C)[C@H]3[C@@]4(O)OC[C@]32[C@@H]1[C@@H](C)[C@H]4O`, the TGI is 0.394 µM in experiment [1]; 0.365 µM and 0.686 µM in [2]; 0.216 µM and 0.124 µM in experiment [4]; 0.0838 µM in [5]; 0.0775 µM and 0.166 µM in [6]; 1.11 µM and 3.51 µM in experiment [7]. For the same molecule, the TGI in experiment [8] is 4.04 µM and 3.35 µM; in experiment [9] it was 0.104 µM and 0.154 µM; in experiment [10], 0.445 µM and 0.653 µM. Besides, the GI50 in experiment [2] is 0.136 µM; in [3] it was less than 0.01 µM; in experiment [4], 0.0288 µM; in experiment [6], < 0.0205 µM and 0.0366 µM; in experiment [7], 0.0588 µM; in experiment [8], 0.237 µM. For the same molecule, the results for the GI50 in experiment [9] and in [10] were less than 0.017 µM and 0.033 µM, respectively.
Turning to `O=C1C(=O)c2ccccc2-c2ccccc21`, the GI50 in experiment [1] was 1.44 µM; in [2] it was 2.02 µM; in experiment [3], 0.831 µM; in experiment [4] it was 1.46 µM; in experiment [5], 1.76 µM; in experiment [6], 1.72 µM. The GI50 was 1.75 µM in experiment [7], 1.73 µM in experiment [8], 1.51 µM in [9] and 2.06 µM in [10]. The TGI was determined as 2.84 µM in [1]; 4.28 µM in experiment [2]; 2.21 µM in [3]; 2.93 µM in experiment [4]; 3.29 µM in experiment [5]; 3.18 µM in experiment [6]. For the same molecule, the TGI in [7] amounted to 3.52 µM; in experiment [8] it was 3.25 µM; in experiment [9], 2.9 µM; in experiment [10], 4.78 µM.
Regarding `O=[N+]([O-])c1cc(CCl)ccc1CCl`, the TGI in experiment [1] worked out at 3.09 µM; in experiment [2] it was 3.19 µM; in experiment [3], 3.26 µM; in [4] it was 3.37 µM; in [5], 3.59 µM; in [6] it was 11 µM. Moreover, the TGI in experiment [7] is 6.18 µM; in experiment [8] it was 26 µM; in experiment [9], 6.88 µM; in experiment [10], 4.54 µM.
For the molecule `COc1cc(/C=C2\[C@H]3c4c(c(OC)c(C)c(OC)c4OC)C[C@@H](C(=O)N2Cc2ccccc2)N3C(=O)OC(C)C)c(OC)c(C)c1OC`, the TGI in [1] was greater than 100 µM; in experiment [2], greater than 100 µM; in [3], greater than 100 µM; in experiment [4] it was greater than 100 µM; in experiment [5] it was greater than 100 µM; in [6] it was 56.2 µM. Also, the TGI in [7], in experiment [8], in experiment [9] and in experiment [10] was greater than 100 µM throughout.
`O=C(NCc1ccccc1)c1cc2cc(O)c(O)cc2cn1`: the TGI in [1] was greater than 100 µM; in experiment [2] it was greater than 100 µM; in [3] it was greater than 100 µM; in [4], greater than 100 µM; in [5] it was 43.1 µM; in experiment [6], 89.9 µM. In addition, the TGI in [7] is 79.6 µM; in experiment [8] it was greater than 100 µM; in [9], 84.5 µM; in experiment [10], greater than 100 µM.
Consider `O=C1CCCC2=C(N1)C(=O)C=CC2=O`, for which the TGI is 55.1 µM in experiment [1]; 33.3 µM in experiment [2]; 49.1 µM in experiment [3]; 38.8 µM in [4]; 55.1 µM in experiment [5]; greater than 68.5 µM in experiment [6]. Further, the TGI in [7] was 48.6 µM; in [8], greater than 100 µM; in experiment [9] it was 60 µM; in [10], 37.9 µM.
As for `CCOc1ccccc1N=Nc1c(-c2ccccc2)nn(C(=O)CC(=O)Nc2cccc(Cl)c2)c1-c1ccccc1`, the TGI in [1], in experiment [2], in experiment [3], in experiment [4], in experiment [5] and in experiment [6] was greater than 100 µM throughout. Further, the TGI in [7], in experiment [8], in experiment [9] and in experiment [10] was greater than 100 µM in each case.
For the molecule `CCCc1cc2cc(-n3nc(C)c4c3CC(C)(C)CC4=O)cc(NC3CCC(O)CC3)c2c(=O)[nH]1` (configuration not stated), the GI50 in experiment [1] is 0.0712 µM; in experiment [2], 0.0775 µM; in [3], 0.0634 µM; in experiment [4], 0.194 µM; in experiment [5], 0.0944 µM; in experiment [6], 5.36 µM. Besides, the GI50 in [7] is 0.626 µM; in experiment [8] it was 0.0892 µM; in experiment [9] it was 1.73 µM; in experiment [10] it was 0.0578 µM. The TGI was greater than 100 µM in [1]; 1.22 µM in experiment [2]; greater than 100 µM in [3]; 1.8 µM in experiment [4]; greater than 100 µM in [5]; greater than 100 µM in experiment [6]. The TGI in [7] is greater than 100 µM; in experiment [8], greater than 46.6 µM; in [9], 39.6 µM; in experiment [10] it was greater than 100 µM.
Take `Cn1ncc2c(/N=C/c3cccs3)[nH]c(=S)nc21`: the GI50 is 37.6 µM in [1]; 22.8 µM in experiment [2]; 33.9 µM in experiment [3]; 61.2 µM in experiment [4]; 45.7 µM in [5]; 10.5 µM in [6]. Moreover, the GI50 in experiment [7] was 54 µM; in experiment [8] it was 80 µM; in experiment [9] it was greater than 63.7 µM; in experiment [10] it was 31.5 µM. Besides, the TGI in experiment [1] is greater than 80 µM; in experiment [2], 65.7 µM; in [3] it was 98 µM; in [4] it was greater than 100 µM; in experiment [5], greater than 100 µM; in experiment [6], 40.9 µM. In addition, the TGI in experiment [7], in experiment [8], in [9] and in [10] was greater than 100 µM in each case.
